Where two headings read alike, the source gives them in different places.
Key:
[1] = tested on: U87 glioblastoma cells; experiment: Cell proliferation assay, U87; format: cell-based, human; conditions: 72 hours
Procedure: (§1) HMVEC-d cells were trypsinized (0.05% trypsin) and resuspended (15,000 cells/ml) in EBM-2 supplemented with 5% fetal bovine serum (FBS), plated onto gelatinized 24-well culture plates (0.5 ml/well), and incubated for 24 hours (37° C., 5% CO2). The media was replaced with 0.5 ml of complete media (serum and growth factors; EGM-2 MV), and test substances were applied. Cells were challenged with free or conjugated TNP-470 (0.01 pg/ml to 1 mg/ml TNP-470-equivalent concentration). Control cells were grown with or without growth factors. U87 glioblastoma cells were washed with PBS, trypsinized and resuspended (5,000 cells/ml) in DMEM supplemented with 10% FBS, plated onto 24-well culture plates (0.5 ml/well), and incubated for 24 hours (37° C., 5% CO2). The media was replaced with 0.5 ml of DMEM and 10% FBS, and the test sample applied. Cells were challenged with free or conjugated TNP-470 (0.01 pg/ml to 1 mg/ml TNP-470-equivalent concentration). Control cells were grown with or without 10% FBS. Both cell types were incubated for 72 hours, followed by trypsinization, resuspension in Hematall (Fisher Scientific, Pittsburgh, Pa.), and counted in a Coulter counter.

[2] = tested on: liver regeneration; experiment: Liver regeneration after 2/3 hepatectomy; format: in vivo, C57 black male mice; conditions: post-operative day 8
Procedure: C57 black male mice underwent a ⅔ hepatectomy through a midline incision after general anesthesia with isoflourane. Free and conjugated TNP-470 (30 mg/kg) was given s.c. every other day for 8 days beginning on the day of surgery. The liver was harvested on the 8th day, weighed and analyzed for histology.

[3] = tested on: VEGFR-2; experiment: VEGFR-2 phosphorylation in HUVEC; format: cell-based, Human; conditions: 5 ng/ml for 2 hours
Procedure: Serum-starved (0.1% FBS in EBM-2 media for 24 hours) HMVEC-d or HUVEC were treated with 5 ng/ml TNP-470 and HPMA copolymer-TNP-470 at 37° C. for 2 hours, and then stimulated with 10 ng/ml of VEGF for 5 minutes. Stimulation was stopped by adding cold PBS. […] After washing the beads with precipitation buffer, immunoprecipitates were resuspended in 2× SDS sample buffer for Western blot analysis with an antibody against phosphorylated tyrosine (pTyr).

[4] = tested on: A2058 human melanoma tumor vessel permeability; experiment: Miles assay on tumor-bearing mice (Example 2); format: in vivo, SCID mice; conditions: 30 mg/kg/day for three days
Procedure: One of the problems with angiogenesis-dependent diseases is increased vessel permeability (due to high levels of VPF) which results in edema and loss of proteins. A decrease in vessel permeability is beneficial in those diseases. We have found, using the Miles assay ([…], et al., Cancer Res, 56:172-181 (1996)), that free and bound TNP-470 block permeability. Briefly, a dye, Evans Blue (1% in PBS), was injected i.v. to anesthesized mice. After 10 min, human recombinant VEGF165 (50 ng/50 μl) was injected intradermally into the back skin. Leakage of protein-bound dye was detected as blue spots on the underside of the back skin surrounding the injection site. After 20 min mice were euthanized. Then, the skin was excised, left in formamide for 5 days to be extracted and the solution read at 620 nm. Putative angiogenesis inhibitors such as free and conjugated TNP-470 were injected daily 3 days (30 mg/kg/day) prior to the VEGF challenge. The same was repeated on tumor-bearing mice to evaluate the effect of angiogenesis inhibitors on tumor vessel permeability.

[5] = tested on: BCE cells; experiment: Junction protein staining of BCE cells treated with TNP-470; format: cell-based, Bovine; conditions: 3 days in culture, stimulated by VEGF or PAF
Procedure: BCE cells were grown on a coverslip glass in a 24-well plate (200,000 cells/well) in DMEM+10% BCS+3 ng/ml bFGF. Cells were treated with TNP-470 for 3 days in culture. Cells were stimulated with VEGF (5 ng/ml) or PAF (100 nM) for 20 min. Cells were stained for occludin, claudin, ZO-1, beta-catenin and VE-cadherin with fluorescent antibodies.

[6] = tested on: LLC, A2058, MCF-7, MDA-MB-231, BXPC3, U87 tumors; conditions: cited from earlier work
[7] = tested on: IL-2-induced pulmonary edema; experiment: IL-2 associated pulmonary edema; format: in vivo, C57B1/6J male mice
Procedure: C57B1/6J male mice were injected with TNP-470 (30 mg/kg daily) or saline subcutaneously (s.c.) for three days. Then mice were injected with IL-2 (1.2×106 units/100 μl) or saline intraperitoneally (i.p.) 3 times a day for 5 days. At termination mice were euthanized and lungs were dissected, weighed, fixed and processed for H & E staining.

[8] = tested on: ear swelling; experiment: Delayed-type hypersensitivity reaction elicited by oxazolone; format: in vivo, C57B1/6J mice
Procedure: Delayed-type hypersensitivity (DTH) reactions were induced in the skin of 8-week-old C57B1/6J male mice (n=5) as previously described (Dvorak et al., 1984). In order to induce an immune response to oxazolone, mice were first sensitized by topical application of 2% oxazolone solution in vehicle, acetone: olive oil (4:1 vol/vol), to the shaved abdomen (50 μl) and to each paw (5 μl). Mice were treated with TNP-470 (30 mg/kg s.c.) for three days prior to the second challenge with oxazolone. Five days after sensitization, the right ears were challenged by topical application of 10 μl of a 1% oxazolone solution; the left ears were treated with vehicle alone. Ear thickness was then measured daily for up to 7 days as a measure of inflammation intensity (Gad et al., 1986). Statistical analysis was performed using the unpaired Student t test. Some mice from each experimental group were euthanized 24 hours after oxazolone challenge (n=5 per group). One half of each ear was fixed in 10% formalin and was processed, embedded in paraffin and stained for H & E. The other half was embedded in OCT compound (Sakura Finetek, Torrance, Calif.) and snap-frozen in liquid nitrogen. Immunohistochemical staining was performed on 5 μm cryostat sections using a Vecstatin avidin-biotin detection system (Vector Labs, Burlingame, Calif.) with rat monoclonal antibodies against mouse CD31 (dilution 1:250, Pharmingen, San Diego, Calif.) according to the manufacturers' instructions.

[9] = tested on: HMVEC-d cells; experiment: Cell proliferation assay, HMVEC-d; format: cell-based, Human
Procedure: as §1

Structure (SMILES): CO[C@@H]1[C@H](OC(=O)NC(=O)CCl)CC[C@]2(CO2)[C@H]1[C@@]1(C)O[C@@H]1CC=C(C)C [TNP-470]
- concentration inhibiting serum-induced proliferation (cytostatic effect) ([1]; U87 glioblastoma cells): higher than 10 ng/ml
- cytotoxic concentration ([1]; U87 tumor cells): higher than 100 μg/ml
- average liver size [2]: 0.7 g
- VPF/VEGF-induced phosphorylation of VEGFR-2 [3]: significantly reduced
- tumor vessel permeability [4]: decreased
- effect on occludin, claudin, ZO-1, beta-catenin or VE-cadherin [5]: did not see any significant and reproducible effect
- tumor growth inhibition ([6]; U87 glioblastoma in mice): 95%
- tumor growth inhibition ([6]; all tumor models studied): 60-95%
- total body weight ([7]; 3 days treatment): did not affect total body weight
- lung pathological features (congestion, edema, fibrin deposition, mononuclear infiltrate) ([7]; IL-2 treated mice): greatly reduced
- lung weight ([7]; mice treated with both IL-2 and TNP-470): 170.2 ± 10.1 mg
- inflammatory response (histology) ([8]; 24 hours after challenge): dramatically reduced
- ear swelling and erythema vs control mice ([8]; 24 hours after oxazolone challenge, P<0.01): significantly reduced ear swelling and erythema
- difference in ear swelling vs control mice ([8]; 48 hours, P<0.01): persisted
- difference in ear swelling vs control mice ([8]; 4 days): differences had disappeared
- endothelial cell vs tumor cell inhibitory concentration difference ([9]; HMVEC-d vs U87): 4 orders of magnitude
- concentration inhibiting growth factor-induced proliferation without cytotoxicity ([9]; HMVEC-d, 72 hours): ≥ 1 pg/mL
- cytotoxic concentration ([9]; HMVEC-d, 72 hours): higher than 1 μg/ml

Reference: patent US20050203013A1, “Methods for inhibiting vascular permeability” (priority 2002, published 2005)
